The values below come from US20200397738A1, “METHODS FOR TREATING CANCER AND PROTECTING RENEWABLE TISSUES” (President and Fellows of Harvard College, priority 2018, published 2020).

The subject of one data set is HIF1. Nature of the data set: RT-qPCR of ALDHA in MCF-7 cells (marker of HIF1 activity). The class given is cell-based, human. The conditions noted are these: MCF-7, 0-100 μg/ml.
The subject of a further data set is thymocytes. Nature of the data set: IR-induced killing of thymocytes, cell count. The class given is cell-based, mice. Here is the method:
Thymocytes isolated from wildtype mice were treated with 2 μg/ml of Compound 1 for 24 hours, in absence or presence of 2 μM GSK126, followed by 0 Gy or 5 Gy IR. Cell numbers were counted 48 hours after IR to assess the effect of Compound 1 and EZH2 inhibition on IR-induced killing.

The test system of data set [1] is thymus, spleen and duodenum. Briefly: TUNEL analysis of IR- and doxorubicin-induced apoptosis in renewable tissues. The class given is in vivo, wild-type mice. On the procedure: To assess the protective effects of Compound 1 on renewable tissues, wild-type mice were injected with Compound 1 at a dose of 4 mg/kg IP for 19 hours before 4 Gy ionizing radiation (IR) or exposure to doxorubicin (20 mg/kg).

Data set [2] relates to human breast cancer cells MCF-7. Nature of the data set: MCF-7 cell proliferation. The class given is cell-based. The conditions noted are these: MCF-7, 10 μM. Here is the method: To assess the impact of Compound 1 on cell proliferation, human breast cancer cells MCF-7 were treated with 10 μM of Compound 1.
Data set [3] concerns the target T1, MDM2/MDMX complex (Homo sapiens, UniProt O15151+Q00987).
T1 construct: expressed in transfected cells
Nature of the data set: cell-based mammalian two-hybrid assay.

A further data set deals with p53. Briefly: RT-qPCR of CDKN1A/p21 in MCF-7 cells (marker of p53 activity). The settings on record: MCF-7, 0-100 μg/ml. The class given is cell-based, human. (In general: Real-time PCR tracks product formation cycle by cycle.)
For data set [4], the system named is EZH2. Nature of the data set: Western blot of EZH2 and H3K27me3 in thymocytes. The class given is cell-based, mice. The settings on record: thymocytes, 0.5, 1, 3 or 5 μg/ml, 12 hours. On the procedure:
(§1) Half-life of EZH2 was measured in splenocytes isolated from wildtype mouse that had been pretreated with 2 μg/ml of Compound 1 for 24 hours followed by 100 μg/ml cycloheximide (CHX). […] To further confirm the effect of Compound 1 on EZH2 and H3K27me3, thymocytes isolated from wildtype mice were treated with 0, 0.5, 1, 3 or 5 μg/ml of Compound 1 for 12 hours. […] Furthermore, to validate the effect of Compound 1 on EZH2 and H3K27me3 in renewable tissues, wildtype mice were treated with 0 or 4 mg/kg of Compound 1 for 19 hours.

Data set [5] concerns the target MDM2/MDMX-mediated p53 ubiquitination (Homo sapiens, UniProt O15151+Q00987). Nature of the data set: cell-free assay with purified proteins, p53 ubiquitination. The class given is biochemical.
Data set [6] deals with EZH2. Briefly: half-life of EZH2 in splenocytes with cycloheximide. The class given is cell-based, mouse. The conditions noted are these: 2 μg/ml 24 hours, then 100 μg/ml cycloheximide. On the procedure:
as §1

The subject of a further data set is MCF-7 tumor xenografts. Briefly: immunohistochemical analysis of MCF-7 tumor xenografts. The class given is in vivo. The settings on record: 10 mg/kg IP daily, relative to vehicle-treated mice.
Data set [7] relates to EZH2. Nature of the data set: immunostaining of EZH2 and H3K27me3 in renewable tissues. The class given is in vivo, mice. The settings on record: thymus, spleen and duodenum, 4 mg/kg, 19 hours. On the procedure:
as §1

Another data set concerns MCF-7 xenograft tumors. Briefly: growth of MCF-7 xenograft tumors. The class given is in vivo. The conditions noted are these: 10 mg/kg IP daily, compared to vehicle-treated mice. From the text:
Expression of GLUT1 and PGK1 serves as markers of aggressive biological behavior and identifies a worse prognosis in breast cancer patients.

In data set [8] the target is T2, MDM2/MDMX complex (Mus musculus, UniProt O35618+P23804).
T2 construct: endogenous in cells; host or cells: primary splenocytes from wild-type mice
T2 sequence (P23804 whole entry): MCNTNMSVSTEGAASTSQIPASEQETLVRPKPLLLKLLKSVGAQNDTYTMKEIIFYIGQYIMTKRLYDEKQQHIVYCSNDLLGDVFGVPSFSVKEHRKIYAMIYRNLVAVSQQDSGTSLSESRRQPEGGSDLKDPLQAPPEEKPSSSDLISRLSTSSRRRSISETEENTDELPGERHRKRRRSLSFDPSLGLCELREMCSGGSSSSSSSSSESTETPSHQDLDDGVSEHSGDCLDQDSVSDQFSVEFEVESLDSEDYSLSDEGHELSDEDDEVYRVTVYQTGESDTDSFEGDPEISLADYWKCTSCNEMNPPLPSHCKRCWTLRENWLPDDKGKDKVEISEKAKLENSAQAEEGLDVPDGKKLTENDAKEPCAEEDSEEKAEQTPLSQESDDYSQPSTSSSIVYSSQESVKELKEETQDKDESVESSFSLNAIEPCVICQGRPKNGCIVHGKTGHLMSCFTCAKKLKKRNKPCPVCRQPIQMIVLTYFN
T2 sequence (O35618 whole entry): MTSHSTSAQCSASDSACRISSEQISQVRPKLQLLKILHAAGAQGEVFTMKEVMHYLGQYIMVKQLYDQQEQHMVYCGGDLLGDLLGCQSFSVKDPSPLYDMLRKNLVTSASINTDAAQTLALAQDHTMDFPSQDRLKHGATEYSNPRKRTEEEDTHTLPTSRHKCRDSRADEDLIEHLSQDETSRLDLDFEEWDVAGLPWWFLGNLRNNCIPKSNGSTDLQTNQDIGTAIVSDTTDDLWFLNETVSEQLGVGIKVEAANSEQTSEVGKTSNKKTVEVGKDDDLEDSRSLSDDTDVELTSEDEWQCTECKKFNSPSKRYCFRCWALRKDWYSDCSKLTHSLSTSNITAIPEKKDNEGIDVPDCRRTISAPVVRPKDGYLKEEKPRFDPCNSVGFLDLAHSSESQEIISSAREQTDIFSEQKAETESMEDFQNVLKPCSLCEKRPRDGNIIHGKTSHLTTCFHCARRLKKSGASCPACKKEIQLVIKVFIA
Nature of the data set: immunoprecipitation with anti-Mdmx antibody and immunoblot in splenocytes. The class given is cell-based. The conditions noted are these: splenocytes from wild-type mice, 2 or 5 μg/ml, 24 hour. On the procedure:
A small molecule compound, referred to herein as Compound 1 was used to dissociate and reduce the MDM2/MDMX complex, and preserve p53. […] To further verify this finding, splenocytes from wild-type mice were treated with 2 or 5 μg/ml of Compound 1, or vehicle for 24 hour.
Background: In western blotting, separated proteins are transferred to a membrane and probed.

For data set [9], the system named is thymus, spleen and duodenum. Nature of the data set: TUNEL analysis of IR- and doxorubicin-induced apoptosis in renewable tissues. The class given is in vivo, wild-type mice. The conditions noted are these: doxorubicin 20 mg/kg alone (Compound 1 0 mg/kg).
In a further data set the test system is thymus. Briefly: acute toxicity experiment, caspase-3 in thymus. The settings on record: 200 mg/kg, 24 hours.

T1 sequence (Q00987 whole entry): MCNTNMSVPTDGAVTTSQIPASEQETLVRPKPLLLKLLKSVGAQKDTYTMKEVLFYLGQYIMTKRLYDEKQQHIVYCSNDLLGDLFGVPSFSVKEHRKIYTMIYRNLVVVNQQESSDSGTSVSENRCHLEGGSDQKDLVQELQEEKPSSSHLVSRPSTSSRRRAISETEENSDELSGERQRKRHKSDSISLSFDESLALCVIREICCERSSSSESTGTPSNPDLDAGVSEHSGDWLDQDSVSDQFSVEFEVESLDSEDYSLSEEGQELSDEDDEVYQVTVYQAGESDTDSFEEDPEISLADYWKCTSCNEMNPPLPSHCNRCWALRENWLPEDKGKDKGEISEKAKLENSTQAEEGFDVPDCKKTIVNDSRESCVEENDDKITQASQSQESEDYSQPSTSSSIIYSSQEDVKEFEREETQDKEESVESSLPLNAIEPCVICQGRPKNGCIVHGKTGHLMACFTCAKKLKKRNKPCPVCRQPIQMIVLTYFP
T1 sequence (O15151 whole entry): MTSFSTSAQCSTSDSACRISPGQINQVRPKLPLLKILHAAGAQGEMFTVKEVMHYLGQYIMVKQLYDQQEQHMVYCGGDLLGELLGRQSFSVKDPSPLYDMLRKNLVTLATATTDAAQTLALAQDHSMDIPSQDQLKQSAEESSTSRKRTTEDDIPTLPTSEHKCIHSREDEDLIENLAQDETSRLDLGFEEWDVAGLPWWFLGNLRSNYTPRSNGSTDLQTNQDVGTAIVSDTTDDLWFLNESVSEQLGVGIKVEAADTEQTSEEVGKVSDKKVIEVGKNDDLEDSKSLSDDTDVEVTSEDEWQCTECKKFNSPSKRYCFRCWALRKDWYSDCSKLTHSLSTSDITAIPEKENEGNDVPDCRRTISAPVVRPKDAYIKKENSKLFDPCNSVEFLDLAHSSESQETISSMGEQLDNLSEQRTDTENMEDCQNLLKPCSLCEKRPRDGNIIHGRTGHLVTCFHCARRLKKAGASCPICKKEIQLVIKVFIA
Sequence of MDM2/MDMX-mediated p53 ubiquitination (Q00987 whole entry): as the sequence (Q00987 whole entry) above
Sequence of MDM2/MDMX-mediated p53 ubiquitination (O15151 whole entry): as the sequence (O15151 whole entry) above
Source text for HIF1: The expression level of ALDHA was used as surrogate marker to assess the activity of HIF1.

As for `COC(=O)C1(Cc2ccc(C)c(C/C=C(/C)Cl)c2)OC(=O)C(O)C1c1ccc(O)cc1` (stereo not drawn) [Compound 1], in the data set on HIF1, the “mRNA level of ALDHA” value is reported as “significant decrease”. For the same compound, in the data set on thymocytes (2 μg/ml 24 hours, 5 Gy IR, counted 48 hours after IR), the IR-induced cell death entry is given as “significantly attenuated”. Moreover, the TUNEL apoptosis in data set [1] (Duodenum, 4 Gy IR, Compound 1 4 mg/kg IP 19 hours before) is reported as 1 ± 0.3%; in data set [1] (Duodenum, Control (no IR or doxorubicin), Compound 1 4 mg/kg IP), 0%; in data set [1] (Duodenum, doxorubicin 20 mg/kg, Compound 1 4 mg/kg IP 19 hours before) it was 3 ± 0.1%; in data set [1] (Spleen, 4 Gy IR, Compound 1 4 mg/kg IP 19 hours before), 7 ± 0.2%; in data set [1] (Spleen, Control (no IR or doxorubicin), Compound 1 4 mg/kg IP), 0%; in [1] (Spleen, doxorubicin 20 mg/kg, Compound 1 4 mg/kg IP 19 hours before) it was 1 ± 0.1%. Further, the TUNEL apoptosis is 22 ± 4% in data set [1] (Thymus, 4 Gy IR, Compound 1 4 mg/kg IP 19 hours before); 0% in [1] (Thymus, Control (no IR or doxorubicin), Compound 1 4 mg/kg IP); 1 ± 0.2% in [1] (Thymus, doxorubicin 20 mg/kg, Compound 1 4 mg/kg IP 19 hours before). For the same compound, in data set [2], the cell proliferation entry is listed as “considerable reduction in cell proliferation”. The “disassociation of the MDM2/MDMX complex” value at MDM2/MDMX complex [3] is given as “dose-dependent disassociation”; at MDM2/MDMX complex [8], “disassociation”. In addition, in the data set on p53, the “mRNA level of p21” value is “little induction”. The “level of EZH2” value with EZH2 [4] is given as “significantly induced levels”. Further, the “level of H3K27me3” value in the data set on EZH2 [4] is listed as “significantly induced levels”. In addition, the “MDM2/MDMX-mediated p53 ubiquitination and degradation” value in data set [5] was “blocking MDM2/MDMX-mediated p53 ubiquitination and degradation”. The “half-life of EZH2” value in the data set with EZH2 [6] was “prolonged half-life”. Also, the “expression of PUMA in tumors” value in the data set on MCF-7 tumor xenografts was “little to no change”. Besides, in the data set with MCF-7 tumor xenografts, the “expression of p21 in tumors” value is “little to no change”. The “glycolytic marker GLUT1 in tumors” value with MCF-7 tumor xenografts is reported as “lower level”. For the same compound, in the data set on MCF-7 tumor xenografts, the “glycolytic marker PGK1 in tumors” value is on record as “lower level”. Moreover, the “p53 level in tumors” value in the data set on MCF-7 tumor xenografts is given as “readily detectable levels of p53”. In addition, the “proliferation marker Ki-67 in tumors” value in the data set on MCF-7 tumor xenografts is “lower level”. Moreover, the EZH2 immunostaining result with EZH2 [7] is on record as “induction”. For the same compound, the H3K27me3 immunostaining result in the data set with EZH2 [7] was “induction”. Further, the tumor growth entry with MCF-7 xenograft tumors is “significant growth delay”.

Take `COc1cccc2c1C(=O)c1c(O)c3c(c(O)c1C2=O)C[C@@](O)(C(=O)CO)C[C@@H]3O[C@H]1C[C@H](N)[C@H](O)[C@H](C)O1` [Doxorubicin, doxorubicin]: the results for the TUNEL apoptosis in data set [9] (Duodenum), in [9] (Spleen) and in data set [9] (Thymus) were 15 ± 1.1%, 22 ± 0.2% and 15 ± 0.1%, respectively.

On to `CC[C@H](C)n1cc(C)c2c(C(=O)NCc3c(C)cc(C)[nH]c3=O)cc(-c3ccc(N4CCNCC4)nc3)cc21` [GSK126, reference compound], for which the “protective effect of Compound 1 against IR-induced cell death” value in the data set on thymocytes (2 μM GSK126 with 2 μg/ml Compound 1, 5 Gy IR) is listed as “reversed”.

For the compound `COc1ccc(C2=N[C@@H](c3ccc(Cl)cc3)[C@@H](c3ccc(Cl)cc3)N2C(=O)N2CCNC(=O)C2)c(OC(C)C)c1` [Nutlin 3A], the “caspase-3 activation (apoptosis) in thymus” value in the data set on thymus is “considerable apoptosis”.
